The record followed here is article PMC9739180, “Discovery of a Flavonoid FM04 as a Potent Inhibitor to Reverse P-Glycoprotein-Mediated Drug Resistance in Xenografts and Improve Oral Bioavailability of Paclitaxel” (International Journal of Molecular Sciences, 2022).

The structures appear in SMILES notation. Read-outs that look alike come from different tables or passages of the source.

The nature of the series: Pharmacokinetics of PTX and FM04 after oral co-administration. Format: in vivo, Balb/c mice. Particulars: mice. The protocol:
Pharmacokinetics (PK) study of PTX or FM04 after their oral co-administration. […] PTX (20 or 70 mg/kg) was orally co-administered with FM04 (0, 22 or 45 mg/kg) to mice, plasma was collected at 30, 60, 120, 240 and 420 min, respectively. […] FM04 (45 or 100 mg/kg) was orally co-administered with PTX (0, 50 or 70 mg/kg) to mice, plasma was collected at 30, 60, 120, 240 and 420 min, respectively. The concentration FM04 at each time point was determined by UPLC-MS/MS Pharmacokinetic parameter AUC was calculated by the pharmacokinetic software-Summit® PK solutions 2.0 (Summit Research Service, Ashland, Wilmington, DE, USA).
PTX drug solution was prepared in 5% Cremophor EL, 5% ethanol and 90% saline on the day of the experiment. PTX + FM04 drug solution was prepared in 7% Cremophor EL, 8% ethanol and 85% saline on the day of the experiment. PTX drug solution or PTX + FM04 mixture drug solution was administered to the Balb/c mice (female, 4–6 week-old) via oral gavage. Blood was collected via cardiac puncture at scheduled time points (10, 30, 60, 120, 240 and 420 min) under deep anesthesia. All animals were terminated at the end of the experiment. Plasma concentrations of FM04 and PTX were detected using UPLC-MS/MS. Plasma concentration–time profiles were analyzed by non-compartmental analysis (NCA). The area under the plasma concentration–time curve by trapezoid rules (AUC) (from 0 to infinity), the terminal half-life (t1/2β), initial half-life (t1/2α), mean residence time (MRT), maximum observed concentration (Cmax) and time to maximum concentration (Tmax) were calculated by PK Solutions 2.0 (Summit Research Service, Ashland, Wilmington, DE, USA).
PTX and its internal standard (IS) separation were performed on Agilent 1290 series UPLC coupled with Agilent 6460 Triple quadrupole. The calibration curve of PTX was constructed by quantifying the known amount of PTX that spiked to blank mice plasma following identical sample preparation. The mass spectrometer was configured in ESI + ionization mode monitoring MRM ion transition of m/z 854 > 286 (PTX) and m/z 882 > 314 (IS). Source parameters were as follows, gas temp (350 °C), gas flow (8 L/min), nebulizer (35 psi) and capillary (4000 V). UPLC chromatographic separation was performed on Waters Acquity UPLC BEH C18 (1.7 µM, 2.1 × 50 mm) with a 5 min gradient elution of 30% acetonitrile with 0.1% formic acid to 76% ACN with 0.1% formic acid. Milli-Q with 0.1% formic acid was used as the aqueous phase. Each separation and re-equilibration were completed in 9 min.
Detection and quantification of FM04 and its internal standard were done by using the UPLC-MS/MS system consist of an Acquity Waters UPLC interfaced with a triple quadrupole mass spectrometer (Micromass model Quattro Ultima) equipped with an electrospray ionization source in positive mode. The desolvation temperature, capillary voltage, cone gas and desolvation gas were 350 °C, 3 Kv, 150 L/h and 600 L/h, respectively. Multiple reaction monitoring (MRM) was set to monitor the transitions from 416 > 239 (FM04) and 423 > 239 (IS). Chromatography separation was done with an Acquity UPLC BEH C8 column (2.1 × 50 mm, 1.7 µM). The mobile phase consisted of methanol + 0.1% formic acid (solvent B) and Milli-Q water + 0.1% formic acid (solvent A). The flow rate was 0.4 mL/min. The initial condition was 90% solvent A and 10% solvent B. After 1 min elution by the initial condition, a linear gradient was performed with solvent B increasing from 10% to 100% for 10 min. Afterwards, the mobile phase was restored to the initial condition for re-equilibration. The total analysis time was 20 min per injection.

Where [1] appears, read: oral, PTX 20 mg/kg + FM04 45 mg/kg, relative to 20 mg/kg PTX alone.
Where [2] appears, read: oral, PTX 70 mg/kg + FM04 22 mg/kg, relative to 70 mg/kg PTX alone.
Setting [3] is: oral, PTX 70 mg/kg + FM04 45 mg/kg, relative to 70 mg/kg PTX alone.

As a reminder, the AUC(0-t) is exposure summed from dosing to a finite time, without extrapolation to infinity. A word on the Cmax: it is the highest concentration seen after dosing. For orientation: Tmax means the time from dosing to the highest level. Take `O=c1cc(-c2ccc(OCCOCCNCc3ccccc3)cc2)oc2ccccc12` [FM04, 2-(4-(2-(2-(benzylamino)ethoxy)ethoxy)phenyl)-4H-chromen-4-one]: the AUC(0-t) is, setting by setting: (female, Balb/c, mouse, plasma, po, 100 mg/kg, oral, FM04 100 mg/kg, PTX 0 mg/kg, read-out: FM04 AUC(0-t) (converted)) 1820 ng·h/mL; (female, Balb/c, mouse, plasma, po, oral, FM04 45 mg/kg + PTX 50 mg/kg, read-out: FM04 AUC(0-t) (converted)) 645 ng·h/mL; (female, Balb/c, mouse, plasma, po, oral, FM04 45 mg/kg + PTX 70 mg/kg, read-out: FM04 AUC(0-t) (converted)) 740 ng·h/mL. Further, the maximum concentration (Cmax) was 1020 ng/mL (female, Balb/c, mouse, plasma, po, 100 mg/kg, oral, FM04 100 mg/kg, PTX 0 mg/kg, read-out: FM04 Cmax); 754 ng/mL (female, Balb/c, mouse, plasma, po, oral, FM04 45 mg/kg + PTX 50 mg/kg, read-out: FM04 Cmax); 481 ng/mL (female, Balb/c, mouse, plasma, po, oral, FM04 45 mg/kg + PTX 70 mg/kg, read-out: FM04 Cmax). The Tmax is 30 min (female, Balb/c, mouse, plasma, po, 100 mg/kg, oral, FM04 100 mg/kg, PTX 0 mg/kg, read-out: FM04 Tmax (converted)); 30 min (female, Balb/c, mouse, plasma, po, oral, FM04 45 mg/kg + PTX 50 mg/kg, read-out: FM04 Tmax (converted)); 60 min (female, Balb/c, mouse, plasma, po, oral, FM04 45 mg/kg + PTX 70 mg/kg, read-out: FM04 Tmax (converted)). Besides, where the note is “female, Balb/c, mouse, plasma, FM04 100 mg/kg oral alone, at 720 min, read-out: minimum plasma concentration of FM04”, the concentration at 720 min was determined as 43 ng/mL. Moreover, under “FM04 100 mg/kg oral alone”, the “oral absorption of FM04” value is given as under 0.005%.

The AUC is concentration integrated over time. Consider `CC(=O)O[C@H]1C(=O)[C@@]2(C)[C@H]([C@H](OC(=O)c3ccccc3)[C@]3(O)C[C@H](OC(=O)[C@H](O)[C@@H](NC(=O)c4ccccc4)c4ccccc4)C(C)=C1C3(C)C)[C@]1(OC(C)=O)CO[C@@H]1C[C@@H]2O` [PTX, paclitaxel], for which the area under the curve (AUC) was 9400 ng·h/mL (female, Balb/c, mouse, plasma, po, 20 mg/kg, oral, PTX 20 mg/kg + FM04 45 mg/kg); 143 ng·h/mL (female, Balb/c, mouse, plasma, po, 20 mg/kg, PTX 20 mg/kg alone); 30000 ng·h/mL (female, Balb/c, mouse, plasma, po, 70 mg/kg, oral, PTX 70 mg/kg + FM04 45 mg/kg); 523 ng·h/mL (female, Balb/c, mouse, plasma, po, 70 mg/kg, PTX 70 mg/kg alone); 15500 ng·h/mL (female, Balb/c, mouse, plasma, po, oral, PTX 70 mg/kg + FM04 22 mg/kg). The Cmax (female, Balb/c, mouse, plasma, po, 20 mg/kg, oral, PTX 20 mg/kg, FM04 0 mg/kg, read-out: PTX Cmax) was 134 ng/mL; the Cmax (female, Balb/c, mouse, plasma, po, 70 mg/kg, oral, PTX 70 mg/kg, FM04 0 mg/kg, read-out: PTX Cmax) is 186 ng/mL; the maximum concentration (Cmax) (female, Balb/c, mouse, plasma, po, oral, PTX 20 mg/kg + FM04 45 mg/kg, read-out: PTX Cmax) was determined as 3510 ng/mL; the Cmax (female, Balb/c, mouse, plasma, po, oral, PTX 70 mg/kg + FM04 22 mg/kg, read-out: PTX Cmax) is 4950 ng/mL; the maximum concentration (Cmax) (female, Balb/c, mouse, plasma, po, oral, PTX 70 mg/kg + FM04 45 mg/kg, read-out: PTX Cmax) was found to be 9760 ng/mL. Besides, the exposure AUC(0-t) reads like this: (female, Balb/c, mouse, plasma, po, 70 mg/kg, oral, PTX 70 mg/kg, FM04 0 mg/kg, read-out: PTX AUC(0-t) (converted)) 523 ng·h/mL; (female, Balb/c, mouse, plasma, po, oral, PTX 20 mg/kg + FM04 45 mg/kg, read-out: PTX AUC(0-t) (converted)) 9400 ng·h/mL; (female, Balb/c, mouse, plasma, po, oral, PTX 70 mg/kg + FM04 22 mg/kg, read-out: PTX AUC(0-t) (converted)) 15500 ng·h/mL; (female, Balb/c, mouse, plasma, po, oral, PTX 70 mg/kg + FM04 45 mg/kg, read-out: PTX AUC(0-t) (converted)) 30000 ng·h/mL. Besides, the Tmax (female, Balb/c, mouse, plasma, oral, PTX 20 mg/kg + FM04 45 mg/kg, read-out: PTX Tmax (converted)) is 120 min. Moreover, the “PTX AUC/Dose fold-change vs PTX alone” value by setting is: under setting [1], 66; under setting [2], 30; under setting [3], 57. The “PTX Cmax fold-change vs PTX alone” value reads like this: under setting [1], 26; under setting [2], 27; under setting [3], 53. The “oral absorption of PTX” value worked out at 6.6% (oral PTX 70 mg/kg with FM04 22 mg/kg), 14% (oral PTX with FM04 45 mg/kg) and 0.2% (oral PTX without FM04).
